Laboratory results published in patent US20260028348A1, “MODULATORS OF TNF-ALPHA ACTIVITY” (Forward Therapeutics, Inc., priority 2023, published 2026).

Tested on: HEK Blue™ TNFα reporter cells
Assay: TNF-α Induced HEK Blue Cellular Assay
Type: cell-based
Conditions: TNF-α stimulated HEK Blue TNFα reporter cells, 24 hrs, secreted alkaline phosphatase (QUANTI-Blue, 620 nm)
Procedure: Test articles were diluted in DMSO and serially diluted into 384 well assay plate (Corning 3765), at final concentrations ranging from […] to 0.5 nM. HEK Blue™ TNFα reporter cells were added at a final density of 10,000 cell per well in assay media [DMEM (Gibco, cat #21063-029), 10% fetal bovine serum (ExcelBio, cat #FND500), 1% Penicillin-Streptomycin (Solarbio, cat #P1400-100]. TNF-α (R&D 210-TA-020/CF) was then added to the assay plate at a final concentration of […]. This plate was then incubated for 24 hrs at 37° C. and 5% CO2. Secreted alkaline phosphatase expression was then measured using QUANTI-Blue™(Invivogen), according to manufacturer instructions and read on an Envision microplate reader at 620 nm.
Inhibition data for test compound over a range of concentration was plotted as percentage inhibition of the test compound (100%=maximum inhibition). IC50 values were determined after correcting for background [(sample read-mean of low control)/(mean of high control-mean of low control)] whereby the low control is DMSO without stimulation and high control is DMSO with stimulation. The IC50 is defined as the concentration of test compound which produces […] and was quantified using the 4 parameter logistic equation to fit the data.

Row | Structure (SMILES) | IC50 [nM]
1 | [2H]C([2H])([2H])N1C(=O)c2cccc(OC(F)F)c2[C@H]2C[C@@H]1c1nc3ccc(-c4cnc5c(c4)CC[C@@]5(C)O)nc3n12 (single isomer, unassigned) [Example 67] | 10000 to 30000
2 | [2H]C([2H])([2H])N1C(=O)c2cccc(OC(F)F)c2[C@H]2C[C@@H]1c1nc3ccc(-c4cnc5c(c4)CC[C@]5(C)O)nc3n12 (single isomer, unassigned) [Example 68] | 10000 to 30000
3 | [2H]C([2H])([2H])N1C(=O)c2cccc(OC(F)F)c2[C@H]2C[C@@H]1c1nc3ccc(-c4cnc5c(c4)OCC[C@@]5(C)O)nc3n12 (single isomer, unassigned) [Example 69] | 10000 to 30000
4 | [2H]C([2H])([2H])N1C(=O)c2cccc(OC(F)F)c2[C@H]2C[C@@H]1c1nc3ccc(-c4cnc5c(c4)OCC[C@]5(C)O)nc3n12 (single isomer, unassigned) [Example 70] | 100 to 1000
5 | CN1C(=O)c2cccc(OC(F)F)c2[C@H]2C[C@@H]1c1nc3ccc(-c4cnc5c(c4)CCC5(C)O)cc3n12 (stereo partly drawn) [Example 1, (1R,11R)-18-(difluoromethoxy)-5-{7-hydroxy-7-methyl-5H,6H-cyclopenta[b]pyridin-3-yl}-12-methyl-2,9,12-triazapentacyclo[9.8.1.0^{2,10}.0^{3,8}.0^{14,19}]icosa-3(8),4,6,9,14(19),15,17-heptaen-13-one] | < 100
6 | CN1C(=O)c2cccc(OC(F)F)c2[C@H]2C[C@@H]1c1nc3ccc(-c4ccc5c(c4)CC[C@@H]5N)cc3n12 [Example 2, (1R,11R)-5-[(1S)-1-amino-2,3-dihydro-1H-inden-5-yl]-18-(difluoromethoxy)-12-methyl-2,9,12-triazapentacyclo[9.8.1.0^{2,10}.0^{3,8}.0^{14,19}]icosa-3(8),4,6,9,14(19),15,17-heptaen-13-one] | < 100
7 | CC1(O)CCc2cc(-c3ccc4nc5n(c4c3)[C@@H]3C[C@H]5NC(=O)c4cccc(OC(F)F)c43)cnc21 (stereo partly drawn) [Example 3, (1R,11R)-18-(difluoromethoxy)-5-{7-hydroxy-7-methyl-5H,6H-cyclopenta[b]pyridin-3-yl}-2,9,12-triazapentacyclo[9.8.1.0^{2,10}.0^{3,8}.0^{14,19}]icosa-3(8),4,6,9,14(19),15,17-heptaen-13-one] | < 100
8 | N[C@H]1COc2cc(-c3ccc4nc5n(c4c3)[C@@H]3C[C@H]5NC(=O)c4cccc(OC(F)F)c43)ccc21 [Example 4, (1R,11R)-5-[(3R)-3-amino-2,3-dihydro-1-benzofuran-6-yl]-18-(difluoromethoxy)-2,9,12-triazapentacyclo[9.8.1.0^{2,10}.0^{3,8}.0^{14,19}]icosa-3(8),4,6,9,14(19),15,17-heptaen-13-one] | < 100
9 | CN1C(=O)c2cccc(OC(F)F)c2[C@H]2C[C@@H]1c1nc3ccc(-c4ccc5c(c4)OC[C@@H]5N)cc3n12 [Example 5, (1R,11R)-5-[(3R)-3-amino-2,3-dihydro-1-benzofuran-6-yl]-18-(difluoromethoxy)-12-methyl-2,9,12-triazapentacyclo[9.8.1.0^{2,10}.0^{3,8}.0^{14,19}]icosa-3(8),4,6,9,14(19),15,17-heptaen-13-one] | < 100
10 | N[C@H]1CCc2cc(-c3ccc4nc5n(c4c3)[C@@H]3C[C@H]5NC(=O)c4cccc(OC(F)F)c43)ccc21 [Example 6, (1R,11R)-5-[(1S)-1-amino-2,3-dihydro-1H-inden-5-yl]-18-(difluoromethoxy)-2,9,12-triazapentacyclo[9.8.1.0^{2,10}.0^{3,8}.0^{14,19}]icosa-3(8),4,6,9,14(19),15,17-heptaen-13-one] | < 100
11 | CN1C(=O)c2cccc(OC(F)F)c2[C@H]2C[C@@H]1c1nc3ccc(-c4cc(F)c5c(c4)CC[C@@H]5N)cc3n12 [Example 7, (1R,11R)-5-[(1S)-1-amino-7-fluoro-2,3-dihydro-1H-inden-5-yl]-18-(difluoromethoxy)-12-methyl-2,9,12-triazapentacyclo[9.8.1.0^{2,10}.0^{3,8}.0^{14,19}]icosa-3(8),4,6,9,14(19),15,17-heptaen-13-one] | < 100
